Measured values: US11484032B2, “Compositions for inhibition of insect sensing” (Vanderbilt University, priority 2011, dated 2022)

Legend:
AgORco+AgOR10 [1] = molecular target: T1, AgORco+AgOR10 (Anopheles gambiae, UniProt Q7QCC7); assay: Whole-cell patch clamp, HEK293 cells expressing AgORco+AgOR10; assay type: cell-based; details: for whole-cell current response: holding potential −60 mV
T1 construct: expressed in transfected cells
T1 sequence (Q7QCC7 1-478): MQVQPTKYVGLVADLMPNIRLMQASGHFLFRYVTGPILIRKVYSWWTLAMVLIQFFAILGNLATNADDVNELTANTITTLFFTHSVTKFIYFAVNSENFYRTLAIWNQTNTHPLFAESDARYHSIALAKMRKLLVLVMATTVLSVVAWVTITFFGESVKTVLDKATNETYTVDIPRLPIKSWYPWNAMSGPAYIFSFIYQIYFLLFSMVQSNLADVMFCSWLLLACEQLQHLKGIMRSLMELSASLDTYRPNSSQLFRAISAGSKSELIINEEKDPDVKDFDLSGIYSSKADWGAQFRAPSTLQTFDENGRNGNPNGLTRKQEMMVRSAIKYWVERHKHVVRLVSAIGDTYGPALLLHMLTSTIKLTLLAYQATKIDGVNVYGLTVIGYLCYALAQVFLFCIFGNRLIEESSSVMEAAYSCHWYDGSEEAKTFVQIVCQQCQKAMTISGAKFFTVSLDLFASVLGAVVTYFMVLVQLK
Method: (§1) Currents from OR-expressing HEK293 cells were amplified with an Axopatch 200b Amplifier (Axon Instruments) and digitized through a Digidata 1322A (Axon Instruments). Electrophysiological data was recorded and analyzed using pCLAMP 10 (Axon Instruments). Electrodes were fabricated from quartz tubing (Sutter Instruments) and pulled to 4-6 MiΩ for whole cell recording. Electrodes were filled with internal solution (120 mM KCl, 30 mM D-glucose, 10 mM HEPES, 2 mM MgCl2, 1.1 mM EGTA, and 0.1 CaCl2) (pH 7.35, 280 mOsm). External (bath) solution contained 130 mM NaCl, 34 mM D-glucose, 10 mM HEPES, 1.5 mM CaCl2), 1.3 mM KH2PO4, and 0.5 MgSO4 (pH 7.35, 300 mOsm). Compounds were diluted in external solution and locally perfused to the recording cell using Perfusion Pencil (Automate Scientific) and controlled by a ValveLink 8.2 controller (Automate Scientific). Whole cell recordings were sampled at 10 kHz and filtered at 5 kHz. Outside-out patches were obtained using 10-15MΩ electrodes pulled from standard glass capillaries (World Precision Instruments) and fire-polished with an MF-830 micro forge (Narishige). Single channel recordings were sampled at 20 kHz. Recordings were reduced to 1 kHz and low-pass filtered at 500 Hz for display and analysis using QuB (SUNY at Buffalo).
(§2) To test the hypothesis that VUAA1 directly agonized AgORco, whole-cell patch clamp responses were examined in AgORco+AgOR10 expressing cells as well as HEK293 cells stably expressing AgORco alone. […] The VUAA1-dependent currents in AgORco+AgOR10 cells resembled those resulting from application of benzaldehyde, an orthosteric agonist of AgOR10 (FIG. 3C) (Wang, 2010; Carey, 2010). […] To investigate the specificity of VUAA1 agonism, the inventors transiently transfected HEK cells with the AgORco orthologs of Drosophila melanogaster and Heliothis virescens, DmORco and HvOR2 respectively.

AgORco = molecular target: T2, AgORco (Anopheles gambiae, UniProt Q7QCC7); assay: Whole-cell patch clamp, HEK293 cells stably expressing AgORco alone; assay type: cell-based; details: for whole-cell current response: AgORco alone cells, holding potential −60 mV
T2 construct: expressed in transfected cells
T2 sequence (Q7QCC7 1-478): T1 sequence (Q7QCC7 1-478)
Method: as §1, §2

Orco 28 + Orco = molecular target: T3, Orco 28 + Orco (Anopheles gambiae, UniProt Q7QCC7); assay: Activity against insect odorant sensory receptors, Orco 28 + Orco (Table 1); assay type: cell-based; details: for Orco 28 + Orco Antagonist % Reduction: antagonist mode; for Orco 28 + Orco Potentiator % increase: potentiator mode
T3 construct: expressed in transfected cells
T3 sequence (Q7QCC7 1-478): T1 sequence (Q7QCC7 1-478)
Method: The activity against insect odorant sensory receptors was evaluated for various disclosed compounds, and the data were collected in Table 1.

AgORco+AgOR10 [2] = molecular target: T1, AgORco+AgOR10; assay: Fluo-4 Ca2+ imaging, HEK293 cells expressing Orco+AgOR10; assay type: cell-based; parameters: Orco 10 + Orco Angatonist % Reduction / Orco 10 + Orco Agonist % of control: concentration or dose not given beside the values; details: Orco 10 + Orco; for Orco 10 + Orco Angatonist % Reduction: antagonist mode
Summary of the method: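 Stable Flp-In T-REx 293 lines co-expressing Orco and OR, induced overnight with 0.3 u-g/ul tetracycline, loaded with 1.8 uM Fluo-4 AM plus 2.5 mM probenecid for 45 min at 37 °C. Ca2+ mobilization read after 20 s baseline and compound addition; Max/Min ratios normalized to the maximum responder.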

[3] = system: Un-transfected HEK293 cells; assay: Whole-cell patch clamp, un-transfected HEK293 control cells; assay type: cell-based, human
Method: as §1

[4] = molecular target: T4, mosquito odorant receptor (complex not stated) (Anopheles gambiae, UniProt Q7QCC7); assay: Agonism of mosquito odorant receptors by VUAA derivatives (complex not stated), cell-based Ca2+ imaging; details: FIGS. 23, 24, 26, 28; OR complex not stated
T4 sequence (Q7QCC7 1-478): T1 sequence (Q7QCC7 1-478)
Source text: For transient transfections, ORs were cloned into pCl (Promega) and transfected into Flp-In™ T-REx™293 cell lines (Invitrogen) with Fu GENE6 (Roche). For the creation of stable cell lines, a cell culture expression vector capable of expressing Orco in conjunction with a conventional OR, pcDNA5/FRT/TO (Invitrogen) was modified to create two individual expression cassettes each under the control of a separate CMV/Tet02 promoter and a BGH poly-adenylation signal. Cells (as above) were transfected with the modified pcDNA5 plasmid along with POG44 (a Flp recombinase expression plasmid) to facilitate site-specific recombination. Stable cell lines were selected using Hygromycin B (Invitrogen). Cells were maintained in DMEM (Invitrogen) supplemented with 10% Tetracycline-free FBS (HyClone) and 15 ng/ml Blasticidin. For fluorometric Ca2+ measurements, stable lines expressing ORs of interest were seeded at 20,000 cells/well in black wall, poly-lysine coated 384-well cell culture plates (Greiner) and treated with […] tetracycline (Sigma) overnight to induce OR expression. Cells were dye-loaded with 1.8 uM Fluo-4 AM (Molecular Probes), 2.5 mM Probenecid (Molecular Probes) in assay buffer (20 mM HEPES, IX HBSS) for 45 minutes at 37° C. in 5% CO2 prior to each assay. Ca^2+ mobilization was assayed in an FDSS6000 (Hamamatsu). Baseline readings were taken for 20 s before automated addition of compound previously diluted in DMSO and assay buffer. Ratios were described as Maximum/Minimum response and each response was normalized to the maximum responder.

[5] = molecular target: T5, rat transient receptor potential vanilloid 1 (rTRPV1) (Rattus norvegicus, UniProt O35433); assay: Whole-cell patch clamp, HEK cells stably expressing rTRPV1; assay type: cell-based
T5 construct: expressed in transfected cells
T5 sequence (O35433 whole entry): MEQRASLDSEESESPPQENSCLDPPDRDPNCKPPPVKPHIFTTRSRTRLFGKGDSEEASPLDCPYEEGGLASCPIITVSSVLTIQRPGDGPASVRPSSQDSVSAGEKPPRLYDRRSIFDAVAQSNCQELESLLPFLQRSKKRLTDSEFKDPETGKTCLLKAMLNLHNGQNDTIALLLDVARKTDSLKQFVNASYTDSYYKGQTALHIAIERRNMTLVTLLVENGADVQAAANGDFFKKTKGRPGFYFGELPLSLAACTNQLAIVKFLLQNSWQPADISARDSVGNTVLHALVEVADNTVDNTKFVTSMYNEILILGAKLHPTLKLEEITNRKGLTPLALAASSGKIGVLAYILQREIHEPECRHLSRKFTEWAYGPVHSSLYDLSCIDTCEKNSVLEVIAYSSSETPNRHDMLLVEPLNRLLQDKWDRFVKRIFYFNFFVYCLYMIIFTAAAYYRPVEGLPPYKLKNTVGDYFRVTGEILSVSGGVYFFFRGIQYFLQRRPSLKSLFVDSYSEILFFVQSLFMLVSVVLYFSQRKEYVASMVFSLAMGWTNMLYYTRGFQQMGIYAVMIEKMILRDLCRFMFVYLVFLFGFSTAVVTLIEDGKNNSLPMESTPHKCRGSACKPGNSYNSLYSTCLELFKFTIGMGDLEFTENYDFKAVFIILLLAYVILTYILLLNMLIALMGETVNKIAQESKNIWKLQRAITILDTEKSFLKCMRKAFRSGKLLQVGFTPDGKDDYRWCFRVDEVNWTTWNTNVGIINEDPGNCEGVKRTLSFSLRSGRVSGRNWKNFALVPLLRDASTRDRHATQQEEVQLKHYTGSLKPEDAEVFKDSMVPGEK

## N.N.N.N.N.N.N.N.N.N.N.N.N.N.[Cl-].[Cl-].[Cl-].[Cl-].[Cl-].[Cl-].[O-2].[O-2].[Ru+3].[Ru+3].[Ru+4] [RR, Ruthenium Red]
AgORco+AgOR10 [1]; AgORco+AgOR10 cells, agonist VUAA1
  reduction of VUAA1-elicited currents: 68.3±2.8%
AgORco+AgOR10 [1]; AgORco+AgOR10 cells, agonist benzaldehyde
  reduction of benzaldehyde-elicited currents: 87.8±1.8%
AgORco; AgORco cells, agonist VUAA1
  reduction of VUAA1 responses: 79.4±4.0%

## CCn1c(Cc2c(C)[nH]c3ccccc23)nnc1SCC(=O)Nc1ccc(Br)cc1
Orco 28 + Orco
  Orco 28 + Orco Antagonist % Reduction: 37.93%
AgORco+AgOR10 [2]
  Orco 10 + Orco Angatonist % Reduction: 13.11%

## CCn1c(SCC(=O)N2c3ccccc3Sc3ccccc32)nnc1-c1ccco1
Orco 28 + Orco
  Orco 28 + Orco Antagonist % Reduction: 28.73%
AgORco+AgOR10 [2]
  Orco 10 + Orco Angatonist % Reduction: 48.26%

## CCn1c(COc2ccccc2)nnc1SCC(=O)Nc1cc(C)ccc1OC
Orco 28 + Orco
  Orco 28 + Orco Antagonist % Reduction: 17.21%
AgORco+AgOR10 [2]
  Orco 10 + Orco Angatonist % Reduction: 33.67%

## O=Cc1ccccc1 [Benzaldehyde]
AgORco+AgOR10 [1]; AgORco+AgOR10 cells
  whole-cell current response: concentration-dependent responses
AgORco+AgOR10 [1]; AgORco+AgOR10 complexes, mean s.e.m.
  reversal potential of agonist-induced current: −2.9±1.4 mV
[3]
  whole-cell current response: did not respond
AgORco
  whole-cell current response: only Orco+AgOR10 cells responded to BA

## CCn1c(SCC(=O)Nc2ccc(C(C)C)cc2)nnc1-c1cn[nH]c1 [D00049 row 12]
[4]
  EC50: 200 µM

## CCn1c(SCC(=O)Nc2ccc(S(=O)(=O)Nc3ccccn3)cc2)nnc1-c1ccncc1
Orco 28 + Orco
  Orco 28 + Orco Potentiator % increase: 15.45%
AgORco+AgOR10 [2]; potentiator mode
  Orco 10 + Orco Potentiator % increase: 12.31%

## COc1cc(CNC(=O)CCCC/C=C/C(C)C)ccc1O [Capsaicin, capsaicin, reference compound]
[5]
  whole-cell current response: robust response

## CCn1c(SCC(=O)Nc2ccc(Cl)cc2C)nnc1-c1ccncc1
Orco 28 + Orco
  Orco 28 + Orco Potentiator % increase: 17.69%

## CCn1c(SCC(=O)Nc2ccc(C(C)C)cc2)nnc1-c1cccnc1 [D00049 row 2]
[4]
  EC50: 20 µM

## CCn1c(CNC(=O)c2ccco2)nnc1SCC(=O)Nc1cc(C)c(C)cc1Br
Orco 28 + Orco
  Orco 28 + Orco Potentiator % increase: 12.28%

## CCn1c(SCC(=O)Nc2ccc(C(C)C)cc2)nnc1-c1cnn(C)c1 [D00049 row 11]
[4]
  EC50: 180 µM

## Nc1nc2c(nc(Br)n2[C@@H]2O[C@@H]3COP(=O)(O)O[C@H]3[C@H]2O)c(=O)[nH]1 [8-Br cGMP, 8-Br-cGMP]
AgORco+AgOR10 [1]; AgORco+AgOR10 cells
  whole-cell current response: unable to evoke whole-cell currents
AgORco
  whole-cell current response: unable to evoke whole-cell currents

## Nc1ncnc2c1nc(Br)n2[C@@H]1O[C@@H]2COP(=O)(O)O[C@H]2[C@H]1O [8-Br cAMP, 8-Br-cAMP]
AgORco+AgOR10 [1]; AgORco+AgOR10 cells
  whole-cell current response: unable to evoke whole-cell currents
AgORco
  whole-cell current response: unable to evoke whole-cell currents

## CCn1c(Cc2ccccc2)nnc1SCC(=O)Nc1ccc(OC)cc1
Orco 28 + Orco
  Orco 28 + Orco Potentiator % increase: 12.7%
